According to patent publication US20100035848A1, “THERAPY FOR DISORDERS OF THE PROXIMAL DIGESTIVE TRACT” (priority 2008, published 2010):

How the values were obtained:
gastric PGE2 synthesis = assay: Acute indomethacin-induced gastric toxicity in rats: gastric PGE2 synthesis; format: in vivo, rat; conditions: indomethacin 20 mg/kg p.o.
Protocol: A study was conducted to determine whether GL1001 would inhibit acute NSAID (indomethacin)-induced gastric toxicity in a rat model (Wallace et al. (1998) Gastroenterol. 115:101-109). Several modes of treatment with GL1001 or vehicle were employed, which included administration via drinking water, oral administration and subcutaneous administration as shown in Table 4. Irrespective of the route of drug or vehicle administration, male Wistar rats were deprived of food for 16 h prior to oral administration of 20 mg/kg indomethacin (Sigma) or vehicle (5% w/v sodium bicarbonate; 1 ml/kg). Three hours later the rats were sacrificed and the severity of gastric damage was blindly scored. This involved measurement of the lengths (in mm) of all hemorrhagic erosions and summing these to give a “gastric damage score” for each stomach. Samples of the stomach were taken for measurement of prostaglandin E2 (PGE2) synthesis as described by Wallace et al. (1998), supra, and myeloperoxidase activity as described by Souza et al. (2003) Am. J. Physiol. 285:[…]-61. Myeloperoxidase is an enzyme found in all cells of mycloid origin, but particularly enriched within neutrophils. It is therefore used as a biochemical marker of granulocyte infiltration into tissue. Each group consisted of 6 rats. As a negative control, one group received vehicle pretreatments (in the drinking water and by oral gavage) and then received vehicle instead of indomethacin. […] [table] In the experiments where GL1001 (or vehicle) was added to drinking water, the rats were provided with the modified drinking water for 2 days prior to administration of indomethacin (or vehicle). This included the period when the rats were deprived of food. GL1001 was prepared in 0.1M citrate buffer before being added to the drinking water. Based on average water consumption by rats, this was aimed at providing a daily dose of GL1100 of 1200 mg/kg (water consumption was monitored for several days prior to initiation of the study). Oral or subcutaneous administration of GL1001 (or vehicle) was performed 30 minutes prior to administration of indomethacin. Data are expressed as mean±SEM. When two groups of data were compared, a Student's t-test was used. When more than two groups of data were compared, a one-way analysis of variance followed by the Newman-Keuls test was used. An associated probability of less than 5% was considered statistically significant.

[1] = tested on: LPS-induced NF-κB-dependent transcription; assay: Luciferase assay of organs extracted from LPS-treated NF-κB::Luc mice; format: in vivo, mouse
Source text: For luciferase assays, organs were extracted and snap-frozen in liquid nitrogen. All tissue samples were placed in lysis buffer with inhibitors (Passive Lysis Buffer (Promega) and Complete Mini Protease Inhibitor Cocktail (Roche, Indianapolis, Ind.)), and were homogenized using a Handishear hand-held tissue homogenizer (VirTis, Gardiner, N.Y.). Tissue homogenates were centrifuged and clarified lysates were used for luminometer assays and western blots. For the luminometer assays, Luciferase Assay Substrate (Luciferase Assay System, Promega) was prepared as indicated by the manufacturer and placed in disposable cuvettes. […] Background luminescence readings were obtained and the background readings were subtracted from the luminescent data. Protein concentrations were determined using the BCA Protein Assay Kit (Pierce, Rockford, Ill.) following the manufacturer's protocols and analyzed using a VERSAmax tunable microplate reader and associated Softmax Pro version 3.1.2 software (Molecular Devices, Sunnyvale Calif.). The luminescence for each of the protein lysates was calculated as arbitrary units of light per microgram of protein. […]
GL1001 was further tested for in vivo anti-inflammatory activity by examining its effects on bacterial LPS-induced NF-κB dependent transcription in NF-κB::Luc mice. […] Luciferase signal was quantitated from several regions of interest. […]

CC(C)C[C@H](N[C@@H](Cc1cncn1Cc1cc(Cl)cc(Cl)c1)C(=O)O)C(=O)O [GL1001, (S,S)-2-[1-carboxy-2-[3-(3,5-dichlorobenzyl)-3H-imidazol-4-yl]-ethylamino]-4-methylpentanoic acid]
Gastric PGE2 synthesis (gastric PGE2 synthesis; Group A: GL1001 in drinking water, vehicle Group B 3.83 ± 0.98): 5.31 ± 1.54 ng/mg
Gastric PGE2 synthesis (gastric PGE2 synthesis; Group C: GL1001 p.o. and in drinking water, vehicle Group D 3.07 ± 0.55): 2.37 ± 0.51 ng/mg
Gastric PGE2 synthesis (gastric PGE2 synthesis; Group F: GL1001 s.c. and in drinking water, vehicle Group G 3.60 ± 0.32): 3.57 ± 0.59 ng/mg
Gastric PGE2 synthesis (gastric PGE2 synthesis; Group H: GL1001 p.o., vehicle Group I 6.08 ± 1.00): 4.44 ± 0.40 ng/mg
reduction of LPS-induced NF-κB-dependent transcription in stomachs ([1]; 0.5 mg/kg LPS and GL1001 30 mg/kg vs LPS alone, FIG. 5): about 37 fold
decrease in LPS-induced NF-κB signaling in other organs ([1]; 0.5 mg/kg LPS and GL1001 30 mg/kg, pancreas, uterus, liver, kidney, spleen, small and large intestine, lymph nodes, cecum, ovary, brain, heart, lung): no statistically significant decrease
